# US10138207B2, “Benzomorphan analogs and the use thereof” (priority 2012, dated 2018)
# Columns and labels:
# κ opioid receptor [1] = biological target: T1, κ opioid receptor (Homo sapiens, UniProt P41145); assay: κ-opioid receptor [35S]GTPγS functional assay, HEK-293 or CHO cells; format: biochemical; design: expressed in transfected cells; host or cells: U-2 OS (in-house membranes); details: for Emax: relative to U69,593
# Method: Membranes from recombinant HEK-293 cells, CHO or U-2 OS cells expressing the recombinant human κ opioid receptor (κ) were prepared by lysing cells in ice cold hypotonic buffer (2.5 mM MgCl2, 50 mM HEPES, pH 7.4) (10 mL/10 cm dish) followed by homogenization with a tissue grinder/Teflon pestle. Membranes from a cell line naturally expressing kappa opioid receptors can also be used. Membranes were collected by centrifugation at 30,000×g for 15 min at 4° C. and pellets were resuspended in hypotonic buffer to a final concentration of 1-3 mg/mL. Protein concentrations were determined using the BioRad protein assay reagent with bovine serum albumen as standard. Aliquots of κ receptor membranes were stored at −80° C.
# Plates were incubated for 30 min at a temperature of about 25° C. with shaking.
# κ opioid receptor [2] = biological target: T1, κ opioid receptor; assay: biochemical; format: binding; design: expressed in transfected cells; host or cells: HEK 293 (in-house membrane prep); details: HEK-293 or CHO cells
# μ-opioid receptor [3] = biological target: T2, μ-opioid receptor (Homo sapiens, UniProt P35372); assay: μ-opioid receptor [35S]GTPγS functional assay, U-2 OS cells; format: biochemical; design: expressed in transfected cells; host or cells: U-2 OS; details: U-2 OS cells; for EC50: read-out: GTPγS μ EC50; for Emax: relative to DAMGO, read-out: GTPγS μ Emax
# μ-opioid receptor [4] = biological target: T2, μ-opioid receptor; assay: μ-opioid receptor [35S]GTPγS functional assay, HEK-293 or CHO cells; details: for Emax: read-out: GTPγS μ Emax
# κ opioid receptor [5] = biological target: T1, κ opioid receptor; assay: κ-opioid receptor [35S]GTPγS functional assay, U-2 OS cells; format: biochemical; design: expressed in transfected cells; host or cells: U-2 OS (in-house membranes); details: U-2 OS cells
# [6] = HEK-293 or CHO cells, read-out: GTPγS κ EC50
# [7] = HEK-293 or CHO cells, bound in μM, read-out: GTPγS κ EC50
# T1 sequence (P41145 whole entry): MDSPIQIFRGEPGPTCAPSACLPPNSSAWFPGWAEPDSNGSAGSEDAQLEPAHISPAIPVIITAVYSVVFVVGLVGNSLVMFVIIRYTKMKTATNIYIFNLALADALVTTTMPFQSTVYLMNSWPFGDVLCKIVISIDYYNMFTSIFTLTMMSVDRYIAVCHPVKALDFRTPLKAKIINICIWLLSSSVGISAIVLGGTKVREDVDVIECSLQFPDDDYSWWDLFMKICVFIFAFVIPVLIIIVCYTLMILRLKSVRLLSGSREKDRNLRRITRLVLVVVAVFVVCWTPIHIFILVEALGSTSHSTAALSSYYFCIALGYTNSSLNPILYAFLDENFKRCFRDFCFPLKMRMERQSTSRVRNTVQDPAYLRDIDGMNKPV
# T2 sequence (P35372 whole entry, species assumed): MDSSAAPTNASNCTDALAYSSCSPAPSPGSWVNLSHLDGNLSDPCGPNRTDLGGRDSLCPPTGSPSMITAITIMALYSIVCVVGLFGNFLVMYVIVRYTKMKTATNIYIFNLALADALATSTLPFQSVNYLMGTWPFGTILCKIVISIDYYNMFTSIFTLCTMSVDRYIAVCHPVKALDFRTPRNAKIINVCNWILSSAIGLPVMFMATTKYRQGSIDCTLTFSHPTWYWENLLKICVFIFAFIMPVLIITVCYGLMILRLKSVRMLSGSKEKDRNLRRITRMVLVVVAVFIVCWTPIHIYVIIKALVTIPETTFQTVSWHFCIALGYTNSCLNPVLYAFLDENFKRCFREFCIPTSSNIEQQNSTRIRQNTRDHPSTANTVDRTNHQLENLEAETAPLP
smiles,measurement,setting,value
"CN1CC[C@]2(C)c3cc(O)ccc3CC1C2N(C)C(=O)/C=C/c1ccoc1 (stereo in doubt) [Compound 24, (E)-3-(furan-3-yl)-N-((2R,6R,11S)-8-hydroxy-3,6-dimethyl-1,2,3,4,5,6-hexahydro-2,6-methanobenzo[d]azocin-11-yl)-N-methylacrylamide]",EC50,κ opioid receptor [1]; [6],0.178 ± 0.0251 µM
same,Emax,κ opioid receptor [1]; HEK-293 or CHO cells,30.7 ± 2.6%
same,Ki,κ opioid receptor [2],1.17 ± 0.09 nM
"CCN(C(=O)/C=C/c1ccoc1)C1C2Cc3ccc(OC)cc3[C@@]1(C)CCN2C (stereo in doubt) [Compound 25, (E)-N-ethyl-3-(furan-3-yl)-N-((2R,6R,11S)-8-methoxy-3,6-dimethyl-1,2,3,4,5,6-hexahydro-2,6-methanobenzo[d]azocin-11-yl)acrylamide]",EC50,μ-opioid receptor [3],49.8 ± 12.1 nM
same,Emax,μ-opioid receptor [3],102 ± 1.67%
same,EC50,κ opioid receptor [1]; [7],> 20 µM
same,Emax,κ opioid receptor [1]; HEK-293 or CHO cells,-1%
same,Ki,κ opioid receptor [2],147 ± 18.4 nM
"CN1CC[C@]2(C)c3cc(O)ccc3CC1C2N(C)C(=O)Cc1ccc(S(C)(=O)=O)cc1 (stereo in doubt) [Compound 27, N-((2R,6R,11S)-8-hydroxy-3,6-dimethyl-1,2,3,4,5,6-hexahydro-2,6-methanobenzo[d]azocin-11-yl)-N-methyl-2-(4-(methylsulfonyl)phenyl)acetamide]",EC50,μ-opioid receptor [3],1.51 ± 0.24 nM
same,Emax,μ-opioid receptor [3],103 ± 2.33%
same,EC50,κ opioid receptor [1]; [7],> 20 µM
same,Ki,κ opioid receptor [2],35.2 ± 9.38 nM
"CN1CC[C@]2(C)c3cc(O)ccc3CC1C2N(C)CCc1ccccc1 (stereo in doubt) [Compound 29, (2R,6R,11S)-3,6-dimethyl-11-(methyl(phenethyl)amino)-1,2,3,4,5,6-hexahydro-2,6-methanobenzo[d]azocin-8-ol]",EC50,μ-opioid receptor [3],0.044 nM
same,Emax,μ-opioid receptor [3],100 ± 1.45%
same,EC50,κ opioid receptor [1]; [6],0.233 ± 0.0749 µM
same,Emax,κ opioid receptor [1]; HEK-293 or CHO cells,28.2 ± 4.66%
same,Ki,κ opioid receptor [2],30.1 ± 11.8 nM
"CN1CC[C@]2(C)c3cc(O)ccc3CC1C2N(C)c1ccc(CCS(N)(=O)=O)cc1 (stereo in doubt) [Compound 51, 2-(4-(((2R,6R,11S)-8-hydroxy-3,6-dimethyl-1,2,3,4,5,6-hexahydro-2,6-methanobenzo[d]azocin-11-yl)(methyl)amino)phenyl)ethanesulfonamide]",EC50,μ-opioid receptor [3],0.21 ± 0.021 nM
same,Emax,μ-opioid receptor [3],113 ± 2.65%
same,EC50,μ-opioid receptor [4],1.44 ± 0.44 nM
same,Emax,μ-opioid receptor [4],100 ± 7.22%
same,EC50,κ opioid receptor [1]; [7],> 20 µM
same,Ki,κ opioid receptor [2],7.83 ± 0.95 nM
"CC(C)CC(NC(=O)N(C)C1[C@H]2Cc3ccc(O)cc3[C@]1(C)CCN2C)C(=O)O (stereo in doubt) [Compound 76, 2-(3-((2R,6S,11S)-8-hydroxy-3,6-dimethyl-1,2,3,4,5,6-hexahydro-2,6-methanobenzo[d]azocin-11-yl)-3-methylureido)-4-methylpentanoic acid]",EC50,μ-opioid receptor [4],811 ± 53 nM
same,Emax,μ-opioid receptor [4],79.3 ± 3.48%
same,EC50,κ opioid receptor [1]; [7],> 20 µM
same,Emax,κ opioid receptor [1]; HEK-293 or CHO cells,-0.33 ± 0.67%
same,Ki,κ opioid receptor [2],107 ± 1.33 nM
"CN1CC[C@]2(C)c3cc(O)ccc3CC1C2N(C)C(=O)Nc1ccc(C#N)cc1 (stereo in doubt) [Compound 78, 3-(4-cyanophenyl)-1-((2R,6R,11S)-8-hydroxy-3,6-dimethyl-1,2,3,4,5,6-hexahydro-2,6-methanobenzo[d]azocin-11-yl)-1-methylurea]",EC50,μ-opioid receptor [3],6.09 ± 0.45 nM
same,Emax,μ-opioid receptor [3],109 ± 3.28%
same,EC50,κ opioid receptor [1]; [7],> 20 µM
same,Ki,κ opioid receptor [2],17.9 ± 4.33 nM
"CN(C(=O)Nc1ccc(C#N)cc1)C1C2Cc3ccc(O)cc3[C@@]1(C)CCN2CCc1ccccc1 (stereo in doubt) [Compound 87, 3-(4-cyanophenyl)-1-((2R,6R,11S)-8-hydroxy-6-methyl-3-phenethyl-1,2,3,4,5,6-hexahydro-2,6-methanobenzo[d]azocin-11-yl)-1-methylurea]",EC50,μ-opioid receptor [3],2.08 ± 0.12 nM
same,Emax,μ-opioid receptor [3],99.3 ± 2.03%
same,EC50,μ-opioid receptor [4],5.29 ± 1.1 nM
same,Emax,μ-opioid receptor [4],96.3 ± 2.96%
same,EC50,κ opioid receptor [1]; [6],0.024 ± 0.00194 µM
same,Emax,κ opioid receptor [1]; HEK-293 or CHO cells,10.8 ± 1.49%
same,Ki,κ opioid receptor [2],1.21 ± 0.24 nM
"CN(C(=O)Nc1ccc(C#N)cc1)C1C2Cc3ccc(O)cc3[C@@]1(C)CCN2Cc1ccoc1 (stereo in doubt) [Compound 90, 3-(4-cyanophenyl)-1-((2R,6R,11S)-3-(furan-3-ylmethyl)-8-hydroxy-6-methyl-1,2,3,4,5,6-hexahydro-2,6-methanobenzo[d]azocin-11-yl)-1-methylurea]",EC50,μ-opioid receptor [3],7.02 ± 1.89 nM
same,Emax,μ-opioid receptor [3],14 ± 1%
same,EC50,μ-opioid receptor [4],5.92 ± 1.82 nM
same,Emax,μ-opioid receptor [4],32.7 ± 5.78%
same,EC50,κ opioid receptor [1]; [7],> 20 µM
same,Emax,κ opioid receptor [1]; HEK-293 or CHO cells,1%
same,Ki,κ opioid receptor [2],1.74 ± 0.45 nM
"COc1ccc2c(c1)C1(C)CCN(CCC(C(=O)N(C)C)(c3ccccc3)c3ccccc3)C(C2)C1(O)O (stereo not drawn) [Compound 7, 4-(11,11-dihydroxy-8-methoxy-6-methyl-1,2,5,6-tetrahydro-2,6-methanobenzo[d]azocin-3(4H)-yl)-N,N-dimethyl-2,2-diphenylbutanamide]",EC50,κ opioid receptor [1]; [7],> 20 µM
same,Emax,κ opioid receptor [1]; HEK-293 or CHO cells,-0.33 ± 0.67%
same,Ki,κ opioid receptor [2],279 ± 39.8 nM
"COc1ccc2c(c1)[C@@]1(C)CCN(C)C(C2)[C@@H]1N(C)C(=O)/C=C/c1ccoc1 [Compound 16, (E)-3-(furan-3-yl)-N-((6R,11R)-8-methoxy-3,6-dimethyl-1,2,3,4,5,6-hexahydro-2,6-methanobenzo[d]azocin-11-yl)-N-methylacrylamide]",EC50,κ opioid receptor [1]; [6],1.05 ± 0.262 µM
same,Emax,κ opioid receptor [1]; HEK-293 or CHO cells,15 ± 1.53%
same,Ki,κ opioid receptor [2],186 ± 34 nM
"COc1ccc2c(c1)[C@@]1(C)CCN(CCC(C(=O)N(C)C)(c3ccccc3)c3ccccc3)C(C2)[C@H]1O [Compound 17, 4-((6R,11S)-11-hydroxy-8-methoxy-6-methyl-1,2,5,6-tetrahydro-2,6-methanobenzo[d]azocin-3(4H)-yl)-N,N-dimethyl-2,2-diphenylbutanamide]",EC50,κ opioid receptor [1]; [7],> 20 µM
same,Ki,κ opioid receptor [2],89.9 ± 14.7 nM
"CN(C)C(=O)C(CCN1CC[C@]2(C)c3cc(O)ccc3CC1[C@H]2O)(c1ccccc1)c1ccccc1 [Compound 22, 4-((6R,11S)-8,11-dihydroxy-6-methyl-1,2,5,6-tetrahydro-2,6-methanobenzo[d]azocin-3(4H)-yl)-N,N-dimethyl-2,2-diphenylbutanamide]",EC50,μ-opioid receptor [3],300 ± 45.8 nM
same,Emax,μ-opioid receptor [3],71 ± 3.46%
same,EC50,κ opioid receptor [1]; [7],> 20 µM
same,Ki,κ opioid receptor [2],25.7 ± 8.74 nM
"CN1CC[C@]2(C)c3cc(O)ccc3CC1[C@@H]2COc1ncc([C@H](O)CO)cc1Cl [Compound 43, (1S)-1-(5-chloro-6-(((6S,11R)-8-hydroxy-3,6-dimethyl-1,2,3,4,5,6-hexahydro-2,6-methanobenzo[d]azocin-11-yl)methoxy)pyridin-3-yl)ethane-1,2-diol]",EC50,μ-opioid receptor [4],3390 ± 63.4 nM
same,Emax,μ-opioid receptor [4],24.7 ± 3.28%
same,EC50,κ opioid receptor [1],> 20 µM
same,Ki,κ opioid receptor [2],516 ± 126 nM
"CN1CC[C@]2(C)c3cc(O)ccc3CC1[C@H]2COc1ccc(C(N)=O)cc1 [Compound 44, 4-(((6S,11S)-8-hydroxy-3,6-dimethyl-1,2,3,4,5,6-hexahydro-2,6-methanobenzo[d]azocin-11-yl)methoxy)benzamide]",EC50,μ-opioid receptor [4],718 ± 249 nM
same,Emax,μ-opioid receptor [4],65 ± 2.52%
same,EC50,κ opioid receptor [1],0.394 ± 0.0884 µM
same,Emax,κ opioid receptor [1]; HEK-293 or CHO cells,17.7 ± 1.2%
same,Ki,κ opioid receptor [2],166 ± 62.3 nM
"COc1ccc2c(c1)[C@@]1(C)CCN(C)C(C2)[C@@H]1c1cccc(C(N)=O)c1 [Compound 54, 3-((6S,11R)-8-methoxy-3,6-dimethyl-1,2,3,4,5,6-hexahydro-2,6-methanobenzo[d]azocin-11-yl)benzamide]",EC50,μ-opioid receptor [4],> 20000 nM
same,EC50,κ opioid receptor [1]; [7],> 20 µM
same,Ki,κ opioid receptor [2],259 ± 33.6 nM
"CN[C@@H]1[C@H]2Cc3ccc(OC)cc3[C@@]1(C)CCN2CC1CC1 [Compound 56, (2R,6R,11S)-3-(cyclopropylmethyl)-8-methoxy-N,6-dimethyl-1,2,3,4,5,6-hexahydro-2,6-methanobenzo[d]azocin-11-amine]",EC50,μ-opioid receptor [4],3810 ± 726 nM
same,Emax,μ-opioid receptor [4],36.7 ± 7.22%
same,EC50,κ opioid receptor [1],2.58 ± 0.721 µM
same,Emax,κ opioid receptor [1]; HEK-293 or CHO cells,25.7 ± 1.67%
same,Ki,κ opioid receptor [2],170 ± 51.9 nM
"COc1ccc2c(c1)[C@@]1(C)CCN(C)C(C2)[C@]1(O)c1cccc(C(N)=O)c1 [Compound 63, 3-((6R,11S)-11-hydroxy-8-methoxy-3,6-dimethyl-1,2,3,4,5,6-hexahydro-2,6-methanobenzo[d]azocin-11-yl)benzamide]",EC50,μ-opioid receptor [4],> 20000 nM
same,EC50,κ opioid receptor [1]; [7],> 20 µM
same,Ki,κ opioid receptor [2],340 ± 90.9 nM
"CN(C(=O)Nc1ccc(C#N)cc1)[C@@H]1C2Cc3ccc(O)cc3[C@@]1(C)CCN2CC1CC1 [Compound 81, 3-(4-cyanophenyl)-1-((6R,11S)-3-(cyclopropylmethyl)-8-hydroxy-6-methyl-1,2,3,4,5,6-hexahydro-2,6-methanobenzo[d]azocin-11-yl)-1-methylurea]",EC50,μ-opioid receptor [4],1230 ± 173 nM
same,Emax,μ-opioid receptor [4],31.2 ± 2.87%
same,EC50,κ opioid receptor [1]; [7],> 20 µM
same,Ki,κ opioid receptor [2],36.6 ± 4.94 nM
"C[C@]12CCN(CC3CC3)[C@H](Cc3ccc(O)cc31)[C@H]2NS(=O)(=O)c1cccc(C(F)(F)F)c1 [Compound 128, N-((2R,6S,11S)-3-(cyclopropylmethyl)-8-hydroxy-6-methyl-1,2,3,4,5,6-hexahydro-2,6-methanobenzo[d]azocin-11-yl)-3-(trifluoromethyl)benzenesulfonamide]",EC50,μ-opioid receptor [3],0.18 ± 0.069 nM
same,Emax,μ-opioid receptor [3],47.8 ± 1.25%
same,EC50,μ-opioid receptor [4],7.67 ± 0.79 nM
same,Emax,μ-opioid receptor [4],53.5 ± 3.52%
same,EC50,κ opioid receptor [5]; read-out: GTPγS κ EC50,0.74 ± 0.13 nM
same,Emax,"κ opioid receptor [5]; relative to U69,593, read-out: GTPγS κ Emax",90.7 ± 1.45%
same,EC50,κ opioid receptor [1]; [6],0.00035 ± 0.00015 µM
same,Emax,κ opioid receptor [1]; HEK-293 or CHO cells,40.3 ± 2.19%
